Data on 21 compounds can be found in patent publication US20120088663A1, “Triazole Compounds Carrying a Sulfur Substituent” (BASF SE, priority 2009, published 2012).

Assay in the first series: not given
Usually melting point stands for the temperature of the solid-liquid transition. As to `CC1COC(Cn2cncn2)(c2ccc(Oc3ccc(Cl)cc3F)cc2)O1` (stereo not drawn) [Example 3, 1-{2-[4-(4-Chloro-2-fluoro-phenoxy)-phenyl]-4-methyl-[1,3]dioxolan-2-ylmethyl}-1H-[1,2,4]triazole], the melting point lay in the range of 113 to 115 °C.

In the case of `CC1COC(Cn2cncn2)(c2ccc(Oc3ccc(F)cc3F)cc2)O1` (stereo not drawn) [Example 4, 1-{2-[4-(2,4-Difluoro-phenoxy)-phenyl]-4-methyl-[1,3]dioxolan-2-ylmethyl}-1H-[1,2,4]triazole], the melting point was in the range of 83 to 86 °C.

Take `CCC1COC(Cn2cncn2)(c2ccc(Oc3ccc(F)cc3F)cc2)O1` (stereo not drawn) [Example 5, 1-{2-[4-(2,4-Difluoro-phenoxy)-phenyl]-4-ethyl-[1,3]dioxolan-2-ylmethyl}-1H-[1,2,4]triazole]: the melting point was in the range of 112 to 114 °C.

As for `CC1COC(Cn2cncn2)(c2ccc(Oc3c(F)cccc3Cl)cc2)O1` (stereo not drawn) [Example 6, 1-{2-[4-(6-Chloro-2-fluoro-phenoxy)-phenyl]-4-methyl-[1,3]dioxolan-2-ylmethyl}-1H-[1,2,4]triazole], the melting point lay in the range of 112 to 114 °C.

As to `CCC1COC(Cn2cncn2)(c2ccc(Oc3c(F)cccc3F)cc2)O1` (stereo not drawn) [Example 9, 1-{2-[4-(2,6-Difluoro-phenoxy)-phenyl]-4-ethyl-[1,3]dioxolan-2-ylmethyl}-1H-[1,2,4]triazole], the melting point fell in the range of 90 to 95 °C.

The compound `CC1COC(Cn2cncn2)(c2ccc(Oc3cc(F)ccc3F)cc2Cl)O1` (stereo not drawn) [Example 26, 1-{2-[2-Chloro-4-(2,5-difluoro-phenoxy)-phenyl]-4-methyl-[1,3]dioxolan-2-ylmethyl}-1H-[1,2,4]triazole] had a melting point of 119.9 °C.

As for `CC1COC(Cn2cncn2)(c2ccc(Oc3ccccc3)c(F)c2)O1` (stereo not drawn) [Example 35, 1-{2-[3-Fluoro-4-phenoxy-phenyl]-4-methyl-[1,3]dioxolan-2-ylmethyl}-1H-[1,2,4]triazole], the melting point fell in the range of 108 to 110 °C.

`CC1COC(Cn2cncn2)(c2cc(F)c(Oc3ccc(Cl)cc3)cc2F)O1` (stereo not drawn) [Example 37, 1-{2-[4-(4-Chloro-phenoxy)-2,5-difluoro-phenyl]-4-methyl-[1,3]dioxolan-2-ylmethyl}-1H-[1,2,4]triazole] had a melting point of 86 to 88 °C.

For `CC1COC(Cn2cncn2)(c2cc(F)c(Oc3ccccc3)cc2F)O1` (stereo not drawn) [Example 40, 1-{2-[3,6-Difluoro-4-phenoxy-phenyl]-4-methyl-[1,3]dioxolan-2-ylmethyl}-1H-[1,2,4]triazole], the melting point lay within 102 to 104 °C.

In turn, `CCCC1COC(Cn2ncnc2S)(c2ccc(Oc3ccc(Cl)cc3)cc2Cl)O1` (stereo not drawn) [Example 65, 2-{2-[2-Chloro-4-(4-chloro-phenoxy)-phenyl]-4-propyl-[1,3]dioxolan-2-yl-methyl}-2H-[1,2,4]triazole-3-thiol] had a melting point of 105 to 106 °C.

As to `COCC1COC(Cn2ncnc2S)(c2ccc(Oc3ccc(Cl)cc3)cc2Cl)O1` (stereo not drawn) [Example 66, 2-{2-[2-Chloro-4-(4-chloro-phenoxy)-phenyl]-4-methoxymethyl-[1,3]dioxolan-2-ylmethyl}-2H-[1,2,4]triazole-3-thiol], the melting point is 153 to 155 °C.

For the compound `CC1COC(Cn2ncnc2S)(c2ccc(Oc3ccccc3)c(F)c2)O1` (stereo not drawn) [Example 67, 2-{2-[3-Fluoro-4-phenoxy-phenyl]-4-methyl-[1,3]dioxolan-2-yl-methyl}-2H-[1,2,4]triazole-3-thiol], the melting point lay within 62 to 64 °C.

For the compound `CC1COC(Cn2ncnc2S)(c2cc(F)c(Oc3ccccc3)c(F)c2)O1` (stereo not drawn) [Example 68, 2-{2-[3,5-Difluoro-4-phenoxy-phenyl]-4-methyl-[1,3]dioxolan-2-yl-methyl}-2H-[1,2,4]triazole-3-thiol], the melting point is 139 to 141 °C.

A further series in a line: Log P, partition coefficient between water and octanol. The class given is physicochemical. The source says:
Log P is the partition coefficient between water and octanol.
For orientation: logP means the decadic logarithm of the partition coefficient of the neutral form, usually between octanol and water. As for `CC1COC(Cn2cncn2)(c2ccc(Oc3ccc(Cl)cc3)c(F)c2)O1` (stereo not drawn) [Example 32, 1-{2-[4-(4-Chloro-phenoxy)-3-fluoro-phenyl]-4-methyl-[1,3]dioxolan-2-ylmethyl}-1H-[1,2,4]triazole], the logP was 4.2.

Regarding `CCC1COC(Cn2cncn2)(c2ccc(Oc3ccc(Cl)cc3)cc2Cl)O1` (stereo not drawn) [Example 38, 1-{2-[2-Chloro-4-(4-chloro-phenoxy)-phenyl]-4-ethyl-[1,3]dioxolan-2-ylmethyl}-1H-[1,2,4]triazole], the logP stood at 5.

Take `CCCC1COC(Cn2cncn2)(c2ccc(Oc3ccc(Cl)cc3)cc2Cl)O1` (stereo not drawn) [Example 39, 1-{2-[2-Chloro-4-(4-chloro-phenoxy)-phenyl]-4-propyl-[1,3]dioxolan-2-ylmethyl}-1H-[1,2,4]triazole]: the logP stood at 5.4.

In turn, `CC1COC(Cn2cncn2)(c2cc(F)c(Oc3ccccc3)c(F)c2)O1` (stereo not drawn) [Example 41, 1-{2-[3,5-Difluoro-4-phenoxy-phenyl]-4-methyl-[1,3]dioxolan-2-ylmethyl}-1H-[1,2,4]triazole] yielded a logP of 3.7.

`CC1COC(Cn2ncnc2S)(c2cc(F)c(Oc3ccc(Cl)cc3)cc2F)O1` (stereo not drawn) [Example 63, 2-{2-[4-(4-Chloro-phenoxy)-2,5-difluoro-phenyl]-4-methyl-[1,3]dioxolan-2-ylmethyl}-2H-[1,2,4]triazole-3-thiol]: the lipophilicity (logP) turned out to be 3.2.

Compound `CC1COC(Cn2ncnc2S)(c2cc(F)c(Oc3ccccc3)cc2F)O1` (stereo not drawn) [Example 64, 2-{2-[2,5-Difluoro-4-phenoxy-phenyl]-4-methyl-[1,3]dioxolan-2-yl-methyl}-2H-[1,2,4]triazole-3-thiol] showed a logP of 2.9.

Compound `CC1COC(Cn2ncnc2S)(c2ccc(Oc3ccc(Cl)cc3)c(F)c2)O1` (stereo not drawn) [Example 69, 2-{2-[4-(4-Chloro-phenoxy)-3-fluoro-phenyl]-4-methyl-[1,3]dioxolan-2-yl-methyl}-2H-[1,2,4]triazole-3-thiol] gave a logP of 3.6.

`CC1COC(Cn2ncnc2S)(c2ccc(Oc3ccc(Cl)cc3)cc2F)O1` (stereo not drawn) [Example 70, 2-{2-[4-(4-Chloro-phenoxy)-2-fluoro-phenyl]-4-methyl-[1,3]dioxolan-2-yl-methyl}-2H-[1,2,4]triazole-3-thiol] showed a logP of 3.5.
